What was measured:
[1] = In vivo pharmacokinetic study in rats, IV or oral dose of ARI-160
Protocol: This example describes pharmacokinetic (PK) studies of ARI-158 and ARI-160 in dogs and rats, respectively. In the present studies, the test compounds were given to groups of male beagle dogs and rats (N=3 in each group) intravenously (IV) at 2 mg/kg or orally (PO) at 10 mg/kg. IV doses were formulated in DMSO, while PO doses were formulated in a 50/50 mixture of PEG400 and Tween 80. Blood samples were collected at pre-dose and over a period of 24 hours post-dose. Plasma concentrations of the indolo-phosphoramidate compounds were determined by HPLC.

[2] = tested on: EMT-6 cancer cells; test: Anti-tumor activity in EMT-6 syngeneic mouse tumor model; format: in vivo; conditions: 80 mpk
Protocol: This example describes in vivo studies that evaluated the anti-cancer efficacy of ARI-158 and ARI-160 in syngeneic mouse tumor models. Mice implanted subcutaneously with EMT-6 cancer cells were treated with ARI-158 and ARI-160, or vehicle controls, as described below.
A monolayer culture of tumor cells was maintained in vitro in DMEM or RPMI1640 medium supplemented with 10% fetal bovine serum at 37° C. in an atmosphere of 5% CO2. Cells in exponential growth phase were harvested and quantitated by cell counter before tumor inoculation.
EMT-6 syngeneic mouse tumor models were generated by inoculating female BALB/C 6 mice with EMT-6 cancer cells at their right lower flank.
Each mouse was inoculated subcutaneously with tumor cells in 0.1 mL of PBS. Treatments were started when the mean tumor size reached approximately 80-120 mm^3 (around 100 mm^3). The administration of the test compounds and the animal number in each study group are shown in the study design. The date of tumor cell inoculation was denoted as day 0.
ARI-158 and ARI-160 were dissolved in DMSO at the final concentration of 26.7 mg/ml and stored at room temperature.
Randomization of animals was started when the mean tumor size reached approximately 90 mm^3 to form the mouse study groups. The randomization was performed based on “Matched distribution” method using the multi-task method (StudyDirector™ software, version 3.1.399.19)/randomized block design. […]
Tumor volumes were measured twice per week in two dimensions using a caliper, and the volume was expressed in mm^3 using the formula: […]
where V is tumor volume, L is tumor length (the longest tumor dimension) and W is tumor width (the longest tumor dimension perpendicular to L). Dosing as well as tumor and body weight measurements was conducted in a Laminar Flow Cabinet. The body weights and tumor volumes were measured by using StudyDirector™ software (version 3.1.399.19).
Tumor growth inhibition percentage (TGI %) is an indicator for antitumor activity of a drug compound, and expressed as: […]
where T and C are the mean tumor volume (or weight) of the treated and control groups, respectively, on a given day. Statistical analysis of the difference in mean tumor volume (MTV) among the groups was conducted using the data collected on the day when the MTV of the vehicle group reached the humane endpoints, so that TGI could be derived for all or most mice enrolled in the study.

[3] = IV 2 mg/kg ARI-160, Animal_ID 1
[4] = IV 2 mg/kg ARI-160, Animal_ID 2
[5] = IV 2 mg/kg ARI-160, Animal_ID 3
[6] = PO 10 mg/kg ARI-160, Animal_ID 4
[7] = PO 10 mg/kg ARI-160, Animal_ID 5
[8] = PO 10 mg/kg ARI-160, Animal_ID 6

CCC(=O)c1csc(C(=O)c2cn(COP(=O)([O-])[O-])c3cc(F)ccc23)n1.[Na+].[Na+] [ARI-160]
AUCinf [1, 3]: 5140 ng·h/mL | AUClast [1, 3]: 5120 ng·h/mL | Cl [1, 3]: 6.48 mL/min/kg | Cmax [1, 3]: 16100 ng/mL | MRTinf [1, 3]: 13.8 min | MRTlast [1, 3]: 12.6 min | Tmax [1, 3]: 4.98 min | T½ [1, 3]: 37.2 min | Vss [1, 3]: 0.0898 L/kg | AUCinf [1, 4]: 3950 ng·h/mL | AUClast [1, 4]: 3930 ng·h/mL | Cl [1, 4]: 8.43 mL/min/kg | Cmax [1, 4]: 12100 ng/mL | MRTinf [1, 4]: 15.6 min | MRTlast [1, 4]: 13.8 min | Tmax [1, 4]: 4.98 min | T½ [1, 4]: 51.6 min | Vss [1, 4]: 0.132 L/kg | AUCinf [1, 5]: 8590 ng·h/mL | AUClast [1, 5]: 8590 ng·h/mL | Cl [1, 5]: 3.88 mL/min/kg | Cmax [1, 5]: 24600 ng/mL | MRTinf [1, 5]: 10.8 min | MRTlast [1, 5]: 10.8 min | Tmax [1, 5]: 4.98 min | T½ [1, 5]: 54 min | Vss [1, 5]: 0.042 L/kg | AUCinf ([1]; IV 2 mg/kg ARI-160, Mean): 5890 ng·h/mL | AUClast ([1]; IV 2 mg/kg ARI-160, Mean): 5880 ng·h/mL | Cl ([1]; IV 2 mg/kg ARI-160, Mean): 6.27 mL/min/kg | Cmax ([1]; IV 2 mg/kg ARI-160, Mean): 17600 ng/mL | MRTinf ([1]; IV 2 mg/kg ARI-160, Mean): 13.2 min | MRTlast ([1]; IV 2 mg/kg ARI-160, Mean): 12.6 min | Tmax ([1]; IV 2 mg/kg ARI-160, Mean): 4.98 min | T½ ([1]; IV 2 mg/kg ARI-160, Mean): 47.4 min | Vss ([1]; IV 2 mg/kg ARI-160, Mean): 0.0878 L/kg | bioavailability ([1]; IV versus oral dosing): better bioavailability with an IV dosing | AUCinf [1, 6]: 23.3 ng·h/mL | AUClast [1, 6]: 13.3 ng·h/mL | Cmax [1, 6]: 12.7 ng/mL | MRTinf [1, 6]: 139 min | MRTlast [1, 6]: 51.8 min | Tmax [1, 6]: 15 min | T½ [1, 6]: 94.8 min | AUCinf [1, 7]: 51.8 ng·h/mL | AUClast [1, 7]: 32.1 ng·h/mL | Cmax [1, 7]: 10.1 ng/mL | MRTinf [1, 7]: 505 min | MRTlast [1, 7]: 195 min | Tmax [1, 7]: 15 min | T½ [1, 7]: 368 min | AUCinf [1, 8]: 22.5 ng·h/mL | AUClast [1, 8]: 11.0 ng·h/mL | Cmax [1, 8]: 6.75 ng/mL | MRTinf [1, 8]: 574 min | MRTlast [1, 8]: 121 min | Tmax [1, 8]: 15 min | T½ [1, 8]: 364 min | AUCinf ([1]; PO 10 mg/kg ARI-160, Mean): 32.5 ng·h/mL | AUClast ([1]; PO 10 mg/kg ARI-160, Mean): 18.8 ng·h/mL | Cmax ([1]; PO 10 mg/kg ARI-160, Mean): 9.85 ng/mL | F. ([1]; PO 10 mg/kg ARI-160, Mean): 0.110% | MRTinf ([1]; PO 10 mg/kg ARI-160, Mean): 406 min | MRTlast ([1]; PO 10 mg/kg ARI-160, Mean): 122 min | Tmax ([1]; PO 10 mg/kg ARI-160, Mean): 15 min | T½ ([1]; PO 10 mg/kg ARI-160, Mean): 275 min | provision of ARI-143 ([1]; after administration of ARI-160): provided ARI-143 after oral as well as IV administration | TGI ([2]; study day 6): 0.01% | TGI ([2]; study day 10): 30.95% | TGI ([2]; study day 13): 30.58% | TGI ([2]; study day 17): 20.47% | TGI ([2]; study day 20): 32.25% | TGI ([2]; study day 24): 33.19% | TGI ([2]; study day 27): 22.24% | TGI ([2]; study day 31): 12.40%

From patent US20210347794A1, “Phosphate Derivatives of Indole Compounds and Their Use” (ARIAGEN, INC., priority 2018, published 2021)
